Results published in patent publication US20250074920A1, “MACROCYCLIC COMPOUNDS AND USE AS KINASE INHIBITORS” (BLOSSOMHILL THERAPEUTICS, INC., priority 2022, published 2025).

Legend:
Assay in all cases: KINOMEscan kinase binding assay
Conditions in all cases: at 1 μM
[1] = system: ABL1(F3171)-phosphorylated
Procedure, shortened: (§1)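 We measured how much kinase stayed bound to an immobilized small-molecule ligand when test compound was present. Binding ran at room temperature for 1 h, and the kinase eluted from the beads was counted by qPCR. Lower % Ctrl indicated tighter compound binding.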

INSR = system: INSR
Procedure, shortened: as §1

TRKA = system: TRKA
Procedure, shortened: as §1

TEC = system: TEC
Procedure, shortened: as §1

FGFR2 = system: FGFR2
Procedure, shortened: as §1

FES = system: FES
Procedure, shortened: as §1

CSF1R = system: CSF1R
Procedure, shortened: as §1

[2] = system: ABL1(Q252H)-phosphorylated
Procedure, shortened: as §1

INSRR = system: INSRR
Procedure, shortened: as §1

KIT(D816H) = system: KIT(D816H)
Procedure, shortened: as §1

[3] = system: ABL1(F317L)-nonphosphorylated
Procedure, shortened: as §1

## Cc1cc2c([nH]1)/C=C1\C(=O)Nc3ccc(cc31)-c1c(nn(C)c1C)OCCCN(C)C2=O [Cpd. 1, [3a(4)Z]-6,9,15,16-tetramethyl-9,10,11,12-tetrahydro-15H-1,17-(ethanediylidene)pyrazolo[4,3-n]dipyrrolo[3,2-g:3′,4′-j][1,5]oxazacyclopentadecine-3,8(2H,5H)-dione]
[1]
  % Ctrl: 64%
INSR
  % Ctrl: 95%
TRKA
  % Ctrl: 67%
TEC
  % Ctrl: 91%
FGFR2
  % Ctrl: 96%
FES
  % Ctrl: 92%
CSF1R
  % Ctrl: 98%
[2]
  % Ctrl: 99%
INSRR
  % Ctrl: 94%
KIT(D816H)
  % Ctrl: 74%
[3]
  % Ctrl: 83%

## Cc1cc2c([nH]1)/C=C1\C(=O)Nc3ccc(cc31)-c1c(nn(C)c1C)COCCN(C)C2=O [Cpd. 2, [3a(4)Z]-6,9,15,16-tetramethyl-10,11,13,15-tetrahydro-2H-1,17-(ethanediylidene)pyrazolo[4,3-m]dipyrrolo[3,2-f:3′,4′-i][1,4]oxazacyclopentadecine-3,8(5H,9H)-dione]
[1]
  % Ctrl: 98%
INSR
  % Ctrl: 100%
TRKA
  % Ctrl: 20%
TEC
  % Ctrl: 83%
FGFR2
  % Ctrl: 85%
FES
  % Ctrl: 100%
CSF1R
  % Ctrl: 82%
[2]
  % Ctrl: 62%
INSRR
  % Ctrl: 100%
KIT(D816H)
  % Ctrl: 98%
[3]
  % Ctrl: 87%

## Cc1cc2c([nH]1)/C=C1\C(=O)Nc3c(Cl)cc(cc31)-c1cn(C)nc1COC[C@@H](C)NC2=O [Cpd. 3, [3a(4)Z,10R]-20-chloro-6,10,15-trimethyl-10,11,13,15-tetrahydro-2H-1,17-(ethanediylidene)pyrazolo[4,3-m]dipyrrolo[3,2-f:3′,4′-i][1,4]oxazacyclopentadecine-3,8(5H,9H)-dione]
[1]
  % Ctrl: 97%
INSR
  % Ctrl: 78%
TRKA
  % Ctrl: 61%
TEC
  % Ctrl: 96%
FGFR2
  % Ctrl: 90%
FES
  % Ctrl: 99%
CSF1R
  % Ctrl: 100%
[2]
  % Ctrl: 100%
INSRR
  % Ctrl: 99%
KIT(D816H)
  % Ctrl: 94%
[3]
  % Ctrl: 95%

## C[C@@H]1COCc2nn(C)cc2-c2cc(Cl)c3c(c2)/C(=C/c2[nH]ccc2C(=O)N1)C(=O)N3 [Cpd. 4, [3a(4)Z,10R]-20-chloro-10,15-dimethyl-10,11,13,15-tetrahydro-2H-1,17-(ethanediylidene)pyrazolo[4,3-m]dipyrrolo[3,2-f:3′,4′-i][1,4]oxazacyclopentadecine-3,8(5H,9H)-dione]
[1]
  % Ctrl: 98%
INSR
  % Ctrl: 81%
TRKA
  % Ctrl: 59%
TEC
  % Ctrl: 99%
FGFR2
  % Ctrl: 99%
FES
  % Ctrl: 100%
CSF1R
  % Ctrl: 92%
[2]
  % Ctrl: 89%
INSRR
  % Ctrl: 91%
KIT(D816H)
  % Ctrl: 80%
[3]
  % Ctrl: 96%

## Cc1cc2c([nH]1)/C=C1\C(=O)Nc3c(Cl)cc(cc31)-c1cn(C)nc1COC[C@@H](C)N(C)C2=O [Cpd. 5, [3a(4)Z,10R]-20-chloro-6,9,10,15-tetramethyl-10,11,13,15-tetrahydro-2H-1,17-(ethanediylidene)pyrazolo[4,3-m]dipyrrolo[3,2-f:3′,4′-i][1,4]oxazacyclopentadecine-3,8(5H,9H)-dione]
[1]
  % Ctrl: 97%
INSR
  % Ctrl: 94%
TRKA
  % Ctrl: 53%
TEC
  % Ctrl: 94%
FGFR2
  % Ctrl: 100%
FES
  % Ctrl: 89%
CSF1R
  % Ctrl: 96%
[2]
  % Ctrl: 89%
INSRR
  % Ctrl: 99%
KIT(D816H)
  % Ctrl: 77%
[3]
  % Ctrl: 86%
